In US5990277A, “Semipeptoid farnesyl protein transferase inhibitors and analogs thereof” (Yissum Research Development Company of the Herbrew …, priority 1996, dated 1999):
Like-named read-outs stand apart in the source and are kept apart here. Square brackets hold non-standard residues; d marks the D form. Ends that are not written are not given here. Peptide text beside a SMILES is read from it. * marks the point of attachment. N(3,4-(MeO)2phenethyl)Gly = COc1ccc(CCNCC(=O)O)cc1OC; Farnesyl = CC(C)=CCC/C(C)=C/CC/C(C)=C/C*; Gly(NCH2CH2Ph) = O=C(O)CNCCc1ccccc1; Gly(N-cHex) = O=C(O)CNC1CCCCC1; NMeV = CN[C@H](C(=O)O)C(C)C; N(iPr)Gly = CC(C)NCC(=O)O; Nphe = O=C(O)CNCc1ccccc1; Nleu = CC(C)CNCC(=O)O

Legend:
[1] = test system: Ras processing in cells transformed with v-ras; conditions: cited from earlier work
[2] = biological target: farnesyl protein transferase (Homo sapiens, UniProt P49354+P49356); conditions: cited from earlier work; for farnesyl protein transferase inhibitory potency in vitro: literature
[3] = biological target: T1, Geranylgeranyl transferase-I (GGT) (Bos taurus, UniProt P29702+Q5EAD5); experiment: Geranylgeranyl transferase-I (GGT) inhibition assay; assay type: biochemical, bovine; conditions: partially purified GGT, Gst-HRas-CVLL substrate
T1 construct: GGT was partially purified from bovine brain; from tissue; host or cells: bovine brain cytosol
Text: The second assay estimated the selectivity of the inhibitor towards FT over a related enzyme, geranylgeranyl-protein-transferase-I (GGT), which transfers a C20 -isoprenoid to a thiol group of cysteine of a C-terminal CAAL (SEQ ID NO:17) peptide sequence derived from geranylgeranylpyrophosphate. Geranylgeranylation of normal cellular proteins is 5-10 times more common than farnesylation (Gibbs et al., Cell, 1994, 77: 175; Gibbs, Cell, 1991, 65: 1; Maltese,. FASEB J., 1990, 4: 3319).
A selective FT-inhibitor is considered to cause fewer cytotoxic effects than a nonselective inhibitor of both FT and GGT. GGT activity, for the partially purified GGT enzyme (Moores et al., J. Biol. Chem., 1991, 266: 14603), was quantified by measuring the incorporation of [^3 H]geranylgeranyl from all trans [^3 H]geranylgeranylpyrophosphate, into purified Gst-HRas-CVLL.
GGT was partially purified from bovine brain. Cytosol was prepared and GGT was isolated using a fractogel DEAE column (150×16 mm, Merck) with NaCl gradient, as for FT purification (see Example 15 above). Fractions containing the GGT activity were pooled and stored at -70° C. Hras gene was point mutated using an oligonucleotide directed in vitro mutagenesis system (Amersham version 2.1). The mutated Hras gene was cloned into the GST--frame of a pGEX-1 expression vector, expressed in E. coli strain TG1, and a fusion protein Gst-HRas-CVLL (SEQ ID NO:22) was purified on glutathione agarose.

FT = biological target: T2, FT (Bos taurus, UniProt P29702+P49355); experiment: Inhibitor farnesylation assay (alternative substrate); assay type: biochemical, bovine; conditions: incubated with FT and [3H]farnesylpyrophosphate in the absence of Ras
T2 construct: Partial purification of FT from bovine brain; from tissue; host or cells: bovine brain
Method: The third assay checked whether the inhibitor itself undergoes farnesylation. For this purpose, the inhibitor was incubated with the FT enzyme and [^3 H]farnesylpyrophosphate in the absence of Ras.
For examination whether the inhibitors undergo farnesylation a previously described procedure (Goldstein et al., J. Biol. Chem., 1991, 266: 15575) was used. Each reaction mixture contained the following components in a final volume of […]: 40 mM TRIS.HCl pH 7.5, 67 mM NaCl, 5 mM MgCl2, 7 mM ZnCl2, 1 mM DTT, 0.07% (v/v) octyl-b-D-glucopyranoside, 20 pmol of [^3 H]farnesylpyrophosphate 45,000 dpm/pmol, 4 mM peptide or peptoid, and 1 mg of partially purified FT. After incubation at 37° C. for 30 minutes, the entire reaction mixture was spotted onto an aluminum backed Silica Gel thin layer sheet (20×20 cm, Merck), and placed in a tank containing n-propyl-alcohol/ammonium hydroxide/water (6:3:1, v/v/v). The chromatogram was run for 4 hours, sprayed with EN^3 HANCE (Dupont) and exposed to RX film (FUJI) for 4 days at -70° C.

[4] = biological target: T3, Farnesyl protein transferase (FT) (Bos taurus, UniProt P29702+P49355); experiment: Farnesyl protein transferase (FT) inhibition assay; assay type: biochemical, bovine; conditions: for IC50: partially purified FT, Gst-HRas substrate
T3 construct: Partial purification of FT from bovine brain; from tissue; host or cells: bovine brain
Method: FT activity was quantified by measuring the incorporation of [^3 H]farnesyl from all-trans-[^3 H]farnesylpyrophosphate into purified Gst-HRas.
Partial purification of FT from bovine brain was performed essentially as described by Reiss at al. (Reiss et al, Cell, 1990, 62: 81), except that a fractogel DEAE column (150×16 mm, Merck) was used for the ion exchange chromatagraphy step. GST-HRas expression vector was constructed by cloning the Hras gene into a pGEX-1 vector, and expressed in E. coli strain TG1. The protein was purified using glutathione agarose (Sigma USA). FT inhibition assays were run in 96-well dishes in a reaction volume of […]. The final reaction mixture contained 5 mM GST-HRas, 0.9 mM [^3 H]farnesylpyrophosphate 20,000 dmp/pmol (NEN-Dupont), 1 mg of partially purified FT, 5 mM MgCl2, 3 mM ZnCl2, 40 mM TRIS.HCl pH 7.5, 60 mM NaCl, 1 mM DTT, 0.2 mM Glutathione, 0.03% Octyl-b-D-glucopyranoside, and serial dilutions of inhibitor.
Following incubation at 37° C. for 30 minutes the reactions were stopped by adding 100 ml of 4% sodium dodecyl sulfate (SDS) followed by 100 ml of 30% trichloroacetic acid (TCA). Plates were incubated for 100 minutes on ice, and the precipitates were filtered using a Millipore milliblot™-system (Millipore Corp., Bedford Mass.) with GF/C membranes. The wells were washed twice with 200 ml of 2% SDS/6% TCA and 7 times with […] of 6% TCA. The filters were punched into 4 ml vials and dried at 70° C. for 10 minutes. 3 ml of scintillation fluid was added and radioactivity was monitored by scintillation counting. IC50 values were resolved from dose-response curves of percent control versus log drug concentration, using the Regression program (Blackwell, UK). Each compound was tested 2-4 times.

[5] = test system: Ras processing in v-Ha-ras transformed NIH3T3 cells; experiment: Protein processing assay in intact cells: Ras; assay type: cell-based; conditions: western blot
Method: Its selectivity towards FT as compared to GGT in whole cells, was determined by its relative inhibitory effects on Ras farnesylation and on Rap1A/Krev geranylgeranylation (Casey, J. Lipid Res. 1992, 33, 1731-1740; Cox et al., Curr. Opin. Cell Biol. 1992, 4, 1008-1016; Garcia et al., J. Biol. Chem. 1993, 268, 18415-18418; and Vogt et al., J. Biol. Chem. 1995, 270, 660-664), respectively. v-Ha-ras transformed NIH3T3 cells were incubated with lovastatin or increasing concentrations of the inhibitor. Cells were lysed and the processed and unprocessed forms of Ras or Rap1A were separated by SDS-PAGE and immunoblotted with anti-Ras or anti-Rap1A antibodies, respectively. Lovastatin is a compound which blocks the processing of isoprenylated proteins in cells by inhibiting an early step of the isoprenoid biosynthetic pathway, and therefore serves as a positive control for the inhibition of both geraylgeranylation and farnesylation (Kohl et al., Science 1993, 260, 1934-1937; Garcia et al., J. Biol. Chem. 1993, 268, 18415-18418; Vogt et al., J. Biol. Chem. 1995, 270, 660-664).
After 48 hr of incubation, cell extracts were separated on SDS-PAGE and immunoblotted with anti-Ras antibody.
Cells were lysed (Garcia et al., J. Biol. Chem. 1993, 268, 18415-18418) in 1% Nonidet P-40, 5 mM TRIS.HCl pH 8.0, 5 mM EDTA, 1 mM phenylmethylsulfonyl fluoride, 10 mg/ml aprotonin, 10 mg/ml soybean trypsin inhibitor and 313 mg/ml benzamidine. The lysate was separated by centriflgation and the supernatant used as cell extract. Total protein was separated by SDS-PAGE (40 mg/lane) in 15% acrylamide (0.4% bis-acrylamide) gels, transferred onto nitrocellulose (Schleicher & Schuell, optitran BA-S 85) and probed with anti-Ras antibody Y13-259, or monoclonal anti-Rap1A/K-rev antibody (transduction laboratories). The western blots were visualized using an enhanced chemiluminescence (ECL) detection system.

[6] = test system: Rap1A/K-rev processing in v-Ha-ras transformed NIH3T3 cells; experiment: Protein processing assay in intact cells: Rap1A/K-rev; assay type: cell-based
Method: Its selectivity towards FT as compared to GGT in whole cells, was determined by its relative inhibitory effects on Ras farnesylation and on Rap1A/Krev geranylgeranylation (Casey, J. Lipid Res. 1992, 33, 1731-1740; Cox et al., Curr. Opin. Cell Biol. 1992, 4, 1008-1016; Garcia et al., J. Biol. Chem. 1993, 268, 18415-18418; and Vogt et al., J. Biol. Chem. 1995, 270, 660-664), respectively. v-Ha-ras transformed NIH3T3 cells were incubated with lovastatin or increasing concentrations of the inhibitor. Cells were lysed and the processed and unprocessed forms of Ras or Rap1A were separated by SDS-PAGE and immunoblotted with anti-Ras or anti-Rap1A antibodies, respectively.
To test the selectivity of compound 12 towards FT in whole cells, the post-translational processing of an endogenous geranylgeranylated protein, Rap1A/K-rev, was analyzed.
v-Ha-ras transformed NIH3T3 fibroblasts were treated with 15 mM lovastatin or the indicated concentrations of compound 12 or vehicle (0.25 mM DTT, 0.25% DMSO), for 48 hr. Cells were lysed (Garcia et al., J. Biol. Chem. 1993, 268, 18415-18418) in 1% Nonidet P-40, 5 mM TRIS.HCl pH 8.0, 5 mM EDTA, 1 mM phenylmethylsulfonyl fluoride, 10 mg/ml aprotonin, 10 mg/ml soybean trypsin inhibitor and 313 mg/ml benzamidine. The lysate was separated by centriflgation and the supernatant used as cell extract. […]

IC50 [3]	alternative substrate (inhibitor itself farnesylated) (FT)	IC50 [4]	Compound	also measured
40 µM	no	0.1 µM	CSCC[C@H](NC(=O)CN(Cc1ccccc1)C(=O)[C@@H](NC(=O)[C@@H](N)CS)C(C)C)C(=O)O [Semipeptoid 1, cysteinyl-valyl-(Nα-benzyl)glycyl-methionine] (H-CV[Nphe]M-OH)	fold more potent than compound 5 (FT) ([4]; versus compound 5): 130 fold; fold more potent than compound 8 (FT) ([4]; versus compound 8): 500 fold
5 µM	no	0.07 µM	CSCC[C@H](NC(=O)CN(C(=O)[C@@H](NC(=O)[C@@H](N)CS)C(C)C)C1CCCCC1)C(=O)O [Semipeptoid 4, cysteinyl-valyl-(Nα-cyclohexyl)glycyl-methionine] (H-CV[Gly(N-cHex)]M-OH)	–
40 µM	no	3 µM	CSCC[C@H](NC(=O)CN(Cc1ccccc1)C(=O)CN(CCN(C)C)C(=O)[C@@H](N)CS)C(=O)O [Semipeptoid 7, cysteinyl-(Nα(N,N-dimethylaminoethyl))glycyl-(Nα-benzyl)glycyl-methionine]	–
155 µM	no	50 µM	CSCC[C@H](NC(=O)[C@H](Cc1ccccc1)NC(=O)CN(C(=O)[C@@H](N)CS)C(C)C)C(=O)O [Semipeptoid 8, cysteinyl-(Nα-isopropyl)glycyl-phenylalanyl-methionine] (H-C[N(iPr)Gly]FM-OH)	–
> 400 µM	no	4 µM	CSCC[C@H](NC(=O)[C@H](Cc1ccccc1)NC(=O)CN(CCN(C)C)C(=O)[C@@H](N)CS)C(=O)O [Semipeptoid 9, cysteinyl-(Nα(N,N-dimethylaminoethyl))glycyl-phenylalanyl-methionine]	–

The remaining lines, values behind:

Compound	IC50 [3]	alternative substrate (inhibitor itself farnesylated) (FT)	IC50 [4]	also measured
CC[C@H](C)[C@H](NC[C@@H](NC[C@@H](N)CS)[C@@H](C)CC)C(=O)N[C@@H](CCO)C(=O)O [L-731,735, N-{2(S)-[2(R)-amino-3-mercaptopropylamino]-3(S)-methylpentyl}isoleucyl-homoserine]	–	–	–	effect on Ras processing in cells [1]: no effect on Ras processing; farnesyl protein transferase inhibitory potency in vitro [2]: potent and selective inhibitor
CC[C@H](C)[C@@H](CO[C@@H](Cc1ccccc1)C(=O)N[C@@H](CCS(C)(=O)=O)C(=O)O)NC[C@@H](N)CS [L-739,750]	–	–	–	farnesyl protein transferase inhibitory potency in vitro [2]: potent inhibitor
CSCC[C@H](NC(=O)CN(CCc1ccccc1)C(=O)[C@@H](NC(=O)[C@@H](N)CS)C(C)C)C(=O)O [Semipeptoid 2, cysteinyl-valyl-(Nα-phenethyl)glycyl-methionine] (H-CV[Gly(NCH2CH2Ph)]M-OH)	30 µM	no	0.32 µM	reduction of relative potency versus compound 1 (FT) ([4]; versus compound 1): 3.2 fold
COc1ccc(CCN(CC(=O)N[C@@H](CCSC)C(=O)O)C(=O)[C@@H](NC(=O)[C@@H](N)CS)C(C)C)cc1OC [Semipeptoid 3, cysteinyl-valyl-(Nα-3,4-dimetoxyphenethyl)glycyl-methionine] (H-CV[N(3,4-(MeO)2phenethyl)Gly]M-OH)	23 µM	no	0.12 µM	times more potent than compound 6 (FT) ([4]; versus compound 6): 33 times
CSCC[C@H](NC(=O)CN(Cc1ccccc1)C(=O)CN(C(=O)[C@@H](N)CS)C(C)C)C(=O)O [Semipeptoid 5, cysteinyl-(Nα-isopropyl)glycyl-(Nα-benzyl)glycyl-methionine] (H-C[N(iPr)Gly][Nphe]M-OH)	190 µM	no	13 µM	–
COc1ccc(CCN(CC(=O)N[C@@H](CCSC)C(=O)O)C(=O)CN(C(=O)[C@@H](N)CS)C(C)C)cc1OC [Semipeptoid 6, cysteinyl-(Nα-isopropyl)glycyl-(Nα-3,4-dimetoxyphenethyl)glycyl-methionine] (H-C[N(iPr)Gly][N(3,4-(MeO)2phenethyl)Gly]M-OH)	80 µM	no	4 µM	–
CSCC[C@H](NC(=O)[C@H](Cc1ccccc1)NC(=O)CN(CC(C)C)C(=O)[C@@H](N)CS)C(=O)O [Semipeptoid 10, cysteinyl-(Nα-isobutyl)glycyl-phenylalanyl-methionine] (H-C[Nleu]FM-OH)	240 µM	no	75 µM	–
CSCC[C@H](NC(=O)CN(C(=O)[C@H](C(C)C)N(C)C(=O)[C@@H](N)CS)C1CCCCC1)C(=O)O [Semipeptoid 11, cysteinyl-(Nα-methyl)valyl-(Nα-cyclohexyl)glycyl-methionine] (H-C[NMeV][Gly(N-cHex)]M-OH)	0.91 µM	–	0.0012 µM	alternative substrate (inhibitor itself farnesylated) (FT; listed as 11): no; alternative substrate (inhibitor itself farnesylated) (FT; listed as compound 11): non-farnesylated; increase of selectivity versus compound 4 ([4]; FT over GGT, versus compound 4): 11 fold; IC50 (GGT)/IC50 (FT) ([4]; selectivity ratio): 758; improvement of potency versus compound 4 (FT) ([4]; versus compound 4): 58 fold
CC[C@H](C)C(=O)O[C@H]1C[C@@H](C)C=C2C=C[C@H](C)[C@H](CC[C@@H]3C[C@@H](O)CC(=O)O3)[C@H]21 [lovastatin, reference compound]	–	–	–	effect on Ras processing ([5]; 48 hr, compared with vehicle): increased amount of unprocessed Ras versus processed Ras; effect on Rap1A/K-rev processing ([6]; 48 hr, western blot): did inhibit Rap1A/K-rev processing
CVLS: CAAX tetrapeptide (SEQ ID NO:18); the result concerns its farnesylated form (C(Farnesyl)VLS)	–	–	–	fold less potent as inhibitor: farnesylated peptide versus its corresponding tetrapeptide ([2]; farnesylated form of the peptide): about 13 fold
methyl ester Derivative of cysteinyl-(Nα-methyl)valyl-(Nα-cyclohexyl)glycyl-methionine [Semipeptoid 12]	–	–	–	concentration range of dose dependent shift of Ras towards its unprocessed form ([5]; 48 hr incubation): 1 to 160 mM; IC50 ([5]; 48 hr incubation, read-out: in situ IC50 (shift of Ras towards its unprocessed form)): 10 µM; effect on Rap1A/K-rev processing [6]: not affected
